Source: patent US20110044938A1 (NYCOMED GMBH, priority 2006, published 2011)

Legend:
[1] = tested on: RKO (RKOp27) human colon adenocarcinoma cells; assay: Alamar Blue cell viability assay, anti-proliferative/cytotoxic activity on proliferating RKO subclones; assay type: cell-based; conditions: RKOp27, 72 h, RKO p27 uninduced (proliferating) cells, value = class bound given in Table A, read-out: −logIC50 RKO p27 uninduced (proliferating) (converted)
Summary of the method: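 RKOp27 subclones (5000 cells/well) were exposed 24 h after seeding to semi-log compound dilutions in DMEM with 10% FCS, in quadruplicate, for 72 h at 37 °C. Viability was read by Alamar Blue fluorescence (544/590 nm) relative to untreated cells (1% DMSO medium). IC50 came from concentration-effect curves and is reported as −log IC50 [mol/l].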

[2] = tested on: subclones of RKO colon adenocarcinoma cells (RKOp27 or RKOp21) arrested by Ponasterone A; assay: Alamar Blue cell viability assay, cell cycle specific mode of action: cells arrested by ectopic p27Kip1 induced by Ponasterone A versus proliferating cells; assay type: cell-based; conditions: Homo sapiens, RKO p27 induced (arrested) cells, 10 μM Ponasterone A, 72 hours, value = class bound given in Table A, read-out: −logIC50 RKO p27 induced (arrested) (converted)
Summary of the method: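 RKOp27 or RKOp21 cells, 15000/well in DMEM/10% FCS, either arrested by p27Kip1 induced with 10 μM Ponasterone A or proliferating without inducer; compound added after 24 h, 72 h at 37° C. Alamar Blue fluorescence (544/590 nm), viability as % of untreated cells; −log IC50 reported.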

SMILES | IC50 [1] [nM] | IC50 [2] [nM]
CC(CC(=O)Nc1sc2c(c1C#N)CCC(COC(=O)NCc1cnn(C)c1)C2)c1cccnc1 (stereo not drawn) [Example 281, (1-Methyl-1H-pyrazol-4-ylmethyl)-carbamic acid 3-cyano-2-(3-pyridin-3-yl-butanoyl-amino)-4,5,6,7-tetrahydro-benzo[b] thiophen-6-ylmethyl ester] | 501 to 2000 | ≥ 100000
Cc1cc(CNC(=O)OCC2CCc3c(sc(NC(=O)CC(C)c4cccnc4)c3C#N)C2)no1 (stereo not drawn) [Example 282, (5-Methyl-isoxazol-3-ylmethyl)-carbamic acid 3-cyano-2-(3-pyridin-3-yl-butanoylamino)-4,5,6,7-tetrahydro-benzo[b]thiophen-6-ylmethyl ester] | ≤ 501 | ≥ 100000
CC(CC(=O)Nc1sc2c(c1C#N)CCC(COC(=O)NC(C)c1ccccc1)C2)c1cccnc1 (stereo not drawn) [Example 283, (1-Phenyl-ethyl)-carbamic acid 3-cyano-2-(3-pyridin-3-yl-butanoylamino)-4,5,6,7-tetrahydro-benzo[b]thiophen-6-ylmethyl ester] | 501 to 2000 | ≥ 100000
CC(CC(=O)Nc1sc2c(c1C#N)CCC(COC(=O)NC(C)c1cccnc1)C2)c1cccnc1 (stereo not drawn) [Example 284, (1-Pyridin-3-yl-ethyl)-carbamic acid 3-cyano-2-(3-pyridin-3-yl-butanoyl-amino)-4,5,6,7-tetrahydro-benzo[b]thiophen-6-ylmethyl ester] | 501 to 2000 | ≥ 50100
CC(CC(=O)Nc1sc2c(c1C#N)CCC(COC(=O)NCc1cccn1C)C2)c1cccnc1 (stereo not drawn) [Example 285, (1-Methyl-1H-pyrrol-2-ylmethyl)-carbamic acid 3-cyano-2-(3-pyridin-3-yl-butanoylamino)-4,5,6,7-tetrahydro-benzo[b]thiophen-6-ylmethyl ester] | 501 to 2000 | ≥ 50100
CCn1nccc1CNC(=O)OC1CCc2c(sc(NC(=O)CC(C)c3cccc(OC)c3)c2C#N)C1 (stereo not drawn) [Example 286, (2-Ethyl-2H-pyrazol-3-ylmethyl)-carbamic acid 3-cyano-2-[3-(3-methoxy-phenyl)-butanoylamino]-4,5,6,7-tetrahydro-benzo[b] thiophen-6-yl ester] | ≤ 501 | ≥ 100000
CC(CC(=O)Nc1sc2c(c1C#N)CCC(OC(=O)NCc1ccccn1)C2)c1ccccc1 (stereo not drawn) [Example 287, Pyridin-2-ylmethyl-carbamic acid 3-cyano-2-(3-phenyl-butanoylamino)-4,5,6,7-tetrahydro-benzo[b] thiophen-6-yl ester] | 501 to 2000 | ≥ 10000
CC(CC(=O)Nc1sc2c(c1C#N)CCC(OC(=O)NCc1cccnc1)C2)c1ccccc1 (stereo not drawn) [Example 288, Pyridin-3-ylmethyl-carbamicacid 3-cyano-2-(3-phenyl-butanoyl-amino)-4,5,6,7-tetrahydro-benzo[b]thiophen-6-yl ester] | ≤ 501 | ≥ 10000
CC(CC(=O)Nc1sc2c(c1C#N)CCC(OC(=O)NCc1ccncc1)C2)c1ccccc1 (stereo not drawn) [Example 289, Pyridin-4-ylmethyl-carbamic acid 3-cyano-2-(3-phenyl-butanoylamino)-4,5,6,7-tetrahydro-benzo[b] thiophen-6-yl ester] | ≤ 501 | ≥ 10000
CC(CC(=O)Nc1sc2c(c1C#N)CCC(OC(=O)NCCc1cccnc1)C2)c1ccccc1 (stereo not drawn) [Example 290, (2-Pyridin-3-yl-ethyl)-carbamic acid 3-cyano-2-(3-phenyl-butanoyl-amino)-4,5,6,7-tetrahydro-benzo[b]thiophen-6-yl ester] | ≤ 501 | ≥ 10000
CC(CC(=O)Nc1sc2c(c1C#N)CCC(OC(=O)NC1CCOCC1)C2)c1ccccc1 (stereo not drawn) [Example 291, (Tetrahydro-pyran-4-yl)-carbamic acid 3-cyano-2-(3-phenyl-butanoyl-amino)-4,5,6,7-tetrahydro-benzo[b]thiophen-6-yl ester] | ≤ 501 | ≥ 10000
CC(CC(=O)Nc1sc2c(c1C#N)CCC(OC(=O)NCc1nccn1C)C2)c1ccccc1 (stereo not drawn) [Example 292, (1-Methyl-1H-imidazol-2-ylmethyl)-carbamic acid 3-cyano-2-(3-phenyl-butanoylamino)-4,5,6,7-tetrahydro-benzo[b] thiophen-6-yl ester] | 501 to 2000 | ≥ 10000
CC(CC(=O)Nc1sc2c(c1C#N)CCC(OC(=O)NCc1ccnn1C)C2)c1ccccc1 (stereo not drawn) [Example 293, (2-Methyl-2H-pyrazol-3-ylmethyl)-carbamic acid 3-cyano-2-(3-phenyl-butanoylamino)-4,5,6,7-tetrahydro-benzo[b] thiophen-6-yl ester] | ≤ 501 | ≥ 50100
Cc1cc(CNC(=O)OC2CCc3c(sc(NC(=O)CC(C)c4ccccc4)c3C#N)C2)no1 (stereo not drawn) [Example 295, (5-Methyl-isoxazol-3-ylmethyl)-carbamic acid 3-cyano-2-(3-phenyl-butanoylamino)-4,5,6,7-tetrahydro-benzo[b] thiophen-6-yl ester] | ≤ 501 | ≥ 50100
CC(CC(=O)Nc1sc2c(c1C#N)CCC(OC(=O)NCC1CCCCO1)C2)c1ccccc1 (stereo not drawn) [Example 296, (Tetrahydropyran-2-ylmethyl)-carbamic acid 3-cyano-2-(3-phenyl-butanoylamino)-4,5,6,7-tetrahydro-benzo[b]thiophen-6-yl ester] | 501 to 2000 | ≥ 50100
CC(CC(=O)Nc1sc2c(c1C#N)CCC(OC(=O)NCC1CCCO1)C2)c1ccccc1 (stereo not drawn) [Example 297, (Tetrahydro-furan-2-ylmethyl)-carbamic acid 3-cyano-2-(3-phenyl-butanoyl-amino)-4,5,6,7-tetrahydro-benzo[b]thiophen-6-yl ester] | 501 to 2000 | ≥ 10000
Cc1n[nH]cc1CNC(=O)OC1CCc2c(sc(NC(=O)CC(C)c3ccccc3)c2C#N)C1 (stereo not drawn) [Example 298, (3-Methyl-1H-pyrazol-4-ylmethyl)-carbamic acid 3-cyano-2-(3-phenyl-butanoylamino)-4,5,6,7-tetrahydro-benzo[b]thiophen-6-yl ester] | ≤ 501 | ≥ 10000
CC(CC(=O)Nc1sc2c(c1C#N)CCC(OC(=O)NC(C)c1ccnn1C)C2)c1ccccc1 (stereo not drawn) [Example 299, [1-(2-Methyl-2H-pyrazol-3-yl)-ethyl]-carbamic acid 3-cyano-2-(3-phenyl-butanoylamino)-4,5,6,7-tetrahydro-benzo[b]thiophen-6-yl ester] | ≤ 501 | ≥ 50100
CC(CC(=O)Nc1sc2c(c1C#N)CCC(OC(=O)NCc1cccn1C)C2)c1ccccc1 (stereo not drawn) [Example 300, (1-Methyl-1H-pyrrol-2-ylmethyl)-carbamic acid 3-cyano-2-(3-phenyl-butanoylamino)-4,5,6,7-tetrahydro-benzo[b] thiophen-6-yl ester] | ≤ 501 | ≥ 50100
Cc1nn(C)cc1CNC(=O)OC1CCc2c(sc(NC(=O)CC(C)c3ccccc3)c2C#N)C1 (stereo not drawn) [Example 301, (1,3-Dimethyl-1H-pyrazol-4-ylmethyl)-carbamic acid 3-cyano-2-(3-phenyl-butanoylamino)-4,5,6,7-tetrahydro-benzo[b]thiophen-6-yl ester] | ≤ 501 | ≥ 50100
Cc1cc(CNC(=O)OC2CCc3c(sc(NC(=O)CC(C)c4ccccc4)c3C#N)C2)n(C)n1 (stereo not drawn) [Example 302, (2,5-Dimethyl-2H-pyrazol-3-ylmethyl)-carbamic acid 3-cyano-2-(3-phenyl-butanoylamino)-4,5,6,7-tetrahydro-benzo[b]thiophen-6-yl ester] | ≤ 501 | ≥ 50100
CCn1nccc1CNC(=O)OC1CCc2c(sc(NC(=O)CC(C)c3ccccc3)c2C#N)C1 (stereo not drawn) [Example 303, (2-Ethyl-2H-pyrazol-3-ylmethyl)-carbamic acid 3-cyano-2-(3-phenyl-butanoylamino)-4,5,6,7-tetrahydro-benzo[b] thiophen-6-yl ester] | ≤ 501 | ≥ 50100
CC(CC(=O)Nc1sc2c(c1C#N)CCC(COC(=O)NCc1ccccn1)C2)c1ccccc1 (stereo not drawn) [Example 304, Pyridin-2-ylmethyl-carbamic acid 3-cyano-2-(3-phenyl-butanoylamino)-4,5,6,7-tetrahydro-benzo[b] thiophen-6-ylmethyl ester] | ≤ 501 | ≥ 50100
CC(CC(=O)Nc1sc2c(c1C#N)CCC(COC(=O)NCc1ccncc1)C2)c1ccccc1 (stereo not drawn) [Example 306, Pyridin-4-ylmethyl-carbamic acid 3-cyano-2-(3-phenyl-butanoyl-amino)-4,5,6,7-tetrahydro-benzo[b] thiophen-6-ylmethyl ester] | ≤ 501 | ≥ 50100
CC(CC(=O)Nc1sc2c(c1C#N)CCC(COC(=O)NCCc1cccnc1)C2)c1ccccc1 (stereo not drawn) [Example 307, (2-Pyridin-3-yl-ethyl)-carbamic acid 3-cyano-2-(3-phenyl-butanoylamino)-4,5,6,7-tetrahydro-benzo[b]thiophen-6-ylmethyl ester] | ≤ 501 | ≥ 50100
CC(CC(=O)Nc1sc2c(c1C#N)CCC(COC(=O)NCC1CCOCC1)C2)c1ccccc1 (stereo not drawn) [Example 308, (Tetrahydro-pyran-4-ylmethyl)-carbamic acid 3-cyano-2-(3-phenyl-butanoylamino)-4,5,6,7-tetrahydro-benzo[b]thiophen-6-ylmethyl ester] | ≤ 501 | ≥ 50100
CC(CC(=O)Nc1sc2c(c1C#N)CCC(COC(=O)NC1CCOCC1)C2)c1ccccc1 (stereo not drawn) [Example 309, (Tetrahydro-pyran-4-yl)-carbamic acid 3-cyano-2-(3-phenyl-butanoylamino)-4,5,6,7-tetrahydro-benzo[b]thiophen-6-ylmethyl ester] | ≤ 501 | ≥ 50100
